In patent US20170050957A1, “4-AMINO-6-(HETEROCYCLIC)PICOLINATES AND 6-AMINO-2-(HETEROCYCLIC)PYRIMIDINE-4-CARBOXYLATES AND THEIR USE AS HERBICIDES” (Dow AgroSciences LLC, priority 2013, published 2017):
Like-named read-outs stand apart in the source and are kept apart here.

Legend:
[1] = test system: Key Broadleaf Weed and Crop Species; assay: Post-emergent Test II herbicidal activity (Table 15); assay type: in vivo; conditions: post-emergence, 336 h, 14 d; for pest or weed control at 35 g/ha: 35 g ai/ha; for pest or weed control at 70 g/ha: 70 g ai/ha; for pest or weed control at 140 g/ha: 140 g ai/ha
Procedure, shortened: (§1)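 Plants grown in greenhouse (~15 h photoperiod, 23-29 °C day, 22-28 °C night) to first or second true leaf stage, then sprayed post-emergence at 187 L/ha with a high rate and 1/2×, 1/4×, 1/8× and 1/16× dilutions. Injury scored visually after 14 d, 0-100% versus untreated plants.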

[2] = test system: Key Grass and Sedge Weeds as well as Grass Crops; assay: Post-emergent Test II herbicidal activity (Table 16); assay type: in vivo; conditions: post-emergence, 336 h, 14 d; for pest or weed control at 35 g/ha: 35 g ai/ha; for pest or weed control at 70 g/ha: 70 g ai/ha; for pest or weed control at 140 g/ha: 140 g ai/ha
Procedure, shortened: as §1

[3] = Abutilon theophrasti, velvetleaf (Abutilon theophrasti), read-out: Visual Growth Reduction (%) 14 Days After Application, ABUTH
[4] = Amaranthus retroflexus, redroot pigweed (Amaranthus retroflexus), read-out: Visual Growth Reduction (%) 14 Days After Application, AMARE
[5] = Brassica napus, oilseed rape, canola (Brassica napus), read-out: Visual Growth Reduction (%) 14 Days After Application, BRSNN
[6] = Chenopodium album, lambsquarters (Chenopodium album), read-out: Visual Growth Reduction (%) 14 Days After Application, CHEAL
[7] = Euphorbia heterophylla, wild poinsettia (Euphorbia heterophylla), read-out: Visual Growth Reduction (%) 14 Days After Application, EPHHL
[8] = Helianthus annuus, sunflower (Helianthus annuus), read-out: Visual Growth Reduction (%) 14 Days After Application, HELAN
[9] = Cyperus esculentus, yellow nutsedge (Cyperus esculentus), read-out: Visual Growth Reduction (%) 14 Days After Application, CYPES
[10] = Echinochloa crus-galli, barnyardgrass (Echinochloa crus-galli), read-out: Visual Growth Reduction (%) 14 Days After Application, ECHCG
[11] = Oryza sativa, rice (Oryza sativa), read-out: Visual Growth Reduction (%) 14 Days After Application, ORYSA
[12] = Setaria faberi, giant foxtail (Setaria faberi), read-out: Visual Growth Reduction (%) 14 Days After Application, SETFA
[13] = Triticum aestivum, wheat, spring (Triticum aestivum), read-out: Visual Growth Reduction (%) 14 Days After Application, TRZAS
[14] = Zea mays, maize, corn (Zea mays), read-out: Visual Growth Reduction (%) 14 Days After Application, ZEAMX

COC(=O)c1nc(-c2ccc3ccoc3c2F)nc(N)c1OC [Compound 2.13]
pest or weed control at 35 g/ha [1, 3]: 95 to 100%
pest or weed control at 70 g/ha [1, 3]: 95 to 100%
pest or weed control at 140 g/ha [1, 3]: 95 to 100%
pest or weed control at 35 g/ha [1, 4]: 60 to 74%
pest or weed control at 70 g/ha [1, 4]: 95 to 100%
pest or weed control at 140 g/ha [1, 4]: 95 to 100%
pest or weed control at 35 g/ha [1, 5]: 95 to 100%
pest or weed control at 70 g/ha [1, 5]: 95 to 100%
pest or weed control at 140 g/ha [1, 5]: 95 to 100%
pest or weed control at 35 g/ha [1, 6]: 95 to 100%
pest or weed control at 70 g/ha [1, 6]: 95 to 100%
pest or weed control at 140 g/ha [1, 6]: 95 to 100%
pest or weed control at 35 g/ha [1, 7]: 95 to 100%
pest or weed control at 70 g/ha [1, 7]: 95 to 100%
pest or weed control at 140 g/ha [1, 7]: 95 to 100%
pest or weed control at 35 g/ha [1, 8]: 75 to 84%
pest or weed control at 70 g/ha [1, 8]: 85 to 94%
pest or weed control at 140 g/ha [1, 8]: 95 to 100%
pest or weed control at 35 g/ha [2, 9]: 30 to 44%
pest or weed control at 70 g/ha [2, 9]: 85 to 94%
pest or weed control at 140 g/ha [2, 9]: 85 to 94%
pest or weed control at 35 g/ha [2, 10]: 75 to 84%
pest or weed control at 70 g/ha [2, 10]: 95 to 100%
pest or weed control at 140 g/ha [2, 10]: 95 to 100%
pest or weed control at 35 g/ha [2, 11]: 0 to 29%
pest or weed control at 70 g/ha [2, 11]: 30 to 44%
pest or weed control at 140 g/ha [2, 11]: 30 to 44%
pest or weed control at 35 g/ha [2, 12]: 0 to 29%
pest or weed control at 70 g/ha [2, 12]: 45 to 59%
pest or weed control at 140 g/ha [2, 12]: 60 to 74%
pest or weed control at 35 g/ha [2, 13]: 0 to 29%
pest or weed control at 70 g/ha [2, 13]: 45 to 59%
pest or weed control at 140 g/ha [2, 13]: 45 to 59%
pest or weed control at 35 g/ha [2, 14]: 0 to 29%
pest or weed control at 70 g/ha [2, 14]: 30 to 44%
pest or weed control at 140 g/ha [2, 14]: 45 to 59%
melting point: 178 °C

COC(=O)c1nc(-c2cc3occc3cc2F)nc(N)c1OC [Compound 2.14]
pest or weed control at 35 g/ha [1, 3]: 0 to 29%
pest or weed control at 70 g/ha [1, 3]: 0 to 29%
pest or weed control at 140 g/ha [1, 3]: 0 to 29%
pest or weed control at 35 g/ha [1, 4]: 95 to 100%
pest or weed control at 70 g/ha [1, 4]: 95 to 100%
pest or weed control at 140 g/ha [1, 4]: 95 to 100%
pest or weed control at 35 g/ha [1, 5]: 95 to 100%
pest or weed control at 70 g/ha [1, 5]: 95 to 100%
pest or weed control at 140 g/ha [1, 5]: 95 to 100%
pest or weed control at 35 g/ha [1, 6]: 85 to 94%
pest or weed control at 70 g/ha [1, 6]: 95 to 100%
pest or weed control at 140 g/ha [1, 6]: 95 to 100%
pest or weed control at 35 g/ha [1, 7]: 85 to 94%
pest or weed control at 70 g/ha [1, 7]: 95 to 100%
pest or weed control at 140 g/ha [1, 7]: 95 to 100%
pest or weed control at 35 g/ha [1, 8]: 60 to 74%
pest or weed control at 70 g/ha [1, 8]: 85 to 94%
pest or weed control at 140 g/ha [1, 8]: 95 to 100%
pest or weed control at 35 g/ha [2, 9]: 0 to 29%
pest or weed control at 70 g/ha [2, 9]: 0 to 29%
pest or weed control at 140 g/ha [2, 9]: 0 to 29%
pest or weed control at 35 g/ha [2, 10]: 0 to 29%
pest or weed control at 70 g/ha [2, 10]: 0 to 29%
pest or weed control at 140 g/ha [2, 10]: 75 to 84%
pest or weed control at 35 g/ha [2, 11]: 0 to 29%
pest or weed control at 70 g/ha [2, 11]: 0 to 29%
pest or weed control at 140 g/ha [2, 11]: 0 to 29%
pest or weed control at 35 g/ha [2, 12]: 0 to 29%
pest or weed control at 70 g/ha [2, 12]: 0 to 29%
pest or weed control at 140 g/ha [2, 12]: 0 to 29%
pest or weed control at 35 g/ha [2, 13]: 0 to 29%
pest or weed control at 70 g/ha [2, 13]: 0 to 29%
pest or weed control at 140 g/ha [2, 13]: 0 to 29%
pest or weed control at 35 g/ha [2, 14]: 0 to 29%
pest or weed control at 70 g/ha [2, 14]: 0 to 29%
pest or weed control at 140 g/ha [2, 14]: 0 to 29%
melting point: 153 °C
